The numbers were not newly measured in US20020040051A1, “Solid dispersion of ipriflavone for oral administration and its manufacturing methods” (priority 2000, published 2002), which cites them from elsewhere.

For series [1] the following is noted: cited from earlier work.
For series [2] the following is noted: 200 mg 3-4 times daily (600-800 mg daily), healthy adult male (18-60 yr); cited from earlier work.

The structures appear in SMILES notation. ≈ marks a conversion by molar mass, not a printed value.

Consider `CC(C)Oc1ccc2c(=O)c(-c3ccccc3)coc2c1` [compound 1, 3-phenyl-7-isopropoxy-4H-1-benzopyrane-4-one], for which the water solubility in series [1] was 1 µg/mL (≈ 3.57 µM). Also, the “day of administration on which blood concentration reaches an effective level” value in series [2] is given as 3rd or 4th day.
